Entries after “also recorded” stand apart in the source; their conditions may differ. Like-named read-outs stand apart in the source and are kept apart here. Values belong to the compound of their own block, whether it stands above or below them.
Experiments:
[1] = tested on: rabbit ventricular myocytes; assay: Simulated ischemia (cell pelleting) and cellular injury, trypan blue; format: cell-based; details: for cytotoxicity at 50 µM: Oryctolagus cuniculus, Ventricular myocyte, 50 μM diazoxide, read-out: cells killed (% of viable cells prior to ischemia)
Experimental: In the following Examples, the procedure to determine cell injury was modified from […] al. […]., et al., “An in vitro model of myocardial ischemia utilizing isolated adult rat myocytes”, J. Mol. Cell Cardiol, 1990, 22: 165-181. After cell isolation, cells were washed with incubation buffer (in mM): NaCl 119, NaHCO3 25, KH2PO4 1.2, KCl 4.8, MgSO4 1.2, HEPES 10, glucose 11, and supplemented with creatine, taurine and amino acids (pH 7.4). Calcium was added into the buffer stepwise (0.25 mM every 5 minutes) to a final concentration of 1 mM. An aliquot of each cell suspension (0.5 ml) was placed in a 0.5 ml microcentrifuge tube and centrifuged for 20 seconds into a pellet. Each pellet occupied a volume of about 0.2 ml. Approximately 0.25 ml of excess supernatant was removed to leave a thin fluid layer above the pellet, and 0.2 ml of mineral oil was layered on the top of the pellet to exclude gaseous diffusion. After 60 min and 120 min of pelleting, 5 μl of cell pellet were sampled through the oil layer and mixed with 75 µl of 85 mOsm hypotonic staining solution (in mM): […] Microscopic examination was performed 2-5 min after mixing to determine the permeability of the cells to trypan blue. Cells permeable to trypan blue were counted as dead and expressed as a percentage of the total cells counted (>200 for each sample). The killing of cells by ischemia was quantified as percentage of the vital cells at the beginning of each experiment (78-90% of total, mean=82±1% n=24). The small percentage of cells ( 18%) that were non-viable at the beginning of the experiment were mostly rounded and had been damaged as a known consequence of the enzymatic isolation process. Mitra, R., et al., “A uniform enzymatic method for dissociation of myocytes from hearts and stomachs of vertebrates”, Am. J. Physiol, 1985, 249: […]-[…]. Individual experiments in each of four groups were performed on cells isolated from different hearts. In the control group (Cont), cells were pelleted and sampled at the 60 min and 120 min. For the diazoxide-treated group (Diazo), 50 μM of diazoxide was added into the solution 15 min before the pelleting. In the third group (5-HD), 100 μM of 5-HD was added into the cell suspension 20 min prior to pelleting. Cells in the Diazo+5HD group were treated the same as in the third group except that 50 μM of diazoxide was added into the cell suspension 15 min before pelleting. Once applied, drugs were not washed out, and thus were present throughout the period of simulated ischemia.

[2] = tested on: mitochondrial flavoprotein oxidation (mitochondrial KATP channels); assay: Flavoprotein fluorescence measurement of mitochondrial redox state in intact ventricular myocytes; format: cell-based, rabbit
Description: (§1) In the following Examples, ventricular myocytes were isolated from adult rabbit hearts by conventional enzymatic dissociation, according to Liu, Y., et al., “Synergistic modulation of ATP-sensitive K^+ currents by protein kinase C and adenosine: implications for ischemic preconditioning”, Circ. Res., 1996, 78: 443-454, then washed several times with calcium-free solution. […].
(§2) For whole-cell patch recordings, the internal pipette solution contained (in mM): 120 K-glutamate, 25 KCI, 0.5 MgCl2, 10 K-EGTA, 10 HEPES and 1 MgATP (pH 7.2 with KOH). The external solution included (in mM): 140 NaCl, 5 KCI, 1 CaCl2, 1 MgCl2, and 10 HEPES (pH 7.4 with NaOH). Whole-cell currents were elicited every 6 sec from a holding potential of −80 mV by two consecutive steps to −40 mV (for 100 msec) and 0 mV (for 380 msec). Currents at 0 mV were measured 200 msec into the pulse. Endogenous flavoprotein fluorescence was excited using a xenon arc lamp with a bandpass filter centered at 480 nm, but only during the 100 msec step to −40 mV t to minimize photobleaching. Emitted fluorescence was recorded at 530 nm by a photomultiplier tube and digitized (Digidata 1200, Axon Instruments). (See Paucek, P., et al., “Cardioprotective effect of diazoxide and its interaction with mitochondrial KATP: possible mechanism of cardioprotection”, J. Mol Cell Cardiol, 1997, 29: A199(Abstract)). Relative fluorescence was averaged during the excitation window and calibrated using the values after dinitrophenol (DNP) and sodium cyanide (CN) exposure.

[3] = target: T1, sarcolemmal KATP channels (Oryctolagus cuniculus, UniProt O02822+P82451); assay: Whole-cell patch recording of sarcolemmal KATP current (IKATP); format: cell-based, rabbit; details: for activation of IKATP: treatment with diazoxide and 5-HD, FIG. 4
T1 construct: ventricular myocytes were isolated from adult rabbit hearts by conventional enzymatic dissociation; endogenous in cells; host or cells: primary adult rabbit ventricular myocytes
Description: as §1, §2

[4] = tested on: mitochondria of ventricular myocytes; format: cell-based, rabbit; details: sequential exposure diazoxide, DNP, CN; FIG. 8
Experimental: In the following Examples, Confocal images were obtained using a Diaphot 300 inverted fluorescence microscope with a PCM-2000 confocal scanning attachment (Nikon, Inc.). Fluorescence was excited by the 488 nm line of an argon laser and the emission at 505-535 nm was recorded. A time series of images was collected at intervals of ˜10 sec and baseline, diazoxide, DNP and CN images were enhanced by averaging 8-10 sequential images having stable mean fluorescence intensities during the exposure to each agent.
To localize mitochondria, cells were loaded with 100 nM TMRE, which distributes into negatively charged cellular compartments, for 10 min., (Lemasters, J. J., et al., “Measurement of electrical potential, pH, and free calcium ion concentration in mitochondria of living cells by laser scanning confocal microscopy”, in Anonymous: Methods in Enzymology., New York, Academic Press, 1995, pp 429-417). TMRE fluorescence was excited with the 535 nm line of a helium neon laser and recorded at greater than 605 nm. A pseudocolor palette was applied to visualize the relative increase in mitochondrial flavoprotein oxidation state.
Images were analyzed on a personal computer using the software program ImageTool (University of Texas Health Sciences Center in San Antonio). All the recordings were performed at room temperature (21-22° C.).

intact hearts = details: Paucek et al. 1997; cited from earlier work

T1 sequence (P82451 whole entry): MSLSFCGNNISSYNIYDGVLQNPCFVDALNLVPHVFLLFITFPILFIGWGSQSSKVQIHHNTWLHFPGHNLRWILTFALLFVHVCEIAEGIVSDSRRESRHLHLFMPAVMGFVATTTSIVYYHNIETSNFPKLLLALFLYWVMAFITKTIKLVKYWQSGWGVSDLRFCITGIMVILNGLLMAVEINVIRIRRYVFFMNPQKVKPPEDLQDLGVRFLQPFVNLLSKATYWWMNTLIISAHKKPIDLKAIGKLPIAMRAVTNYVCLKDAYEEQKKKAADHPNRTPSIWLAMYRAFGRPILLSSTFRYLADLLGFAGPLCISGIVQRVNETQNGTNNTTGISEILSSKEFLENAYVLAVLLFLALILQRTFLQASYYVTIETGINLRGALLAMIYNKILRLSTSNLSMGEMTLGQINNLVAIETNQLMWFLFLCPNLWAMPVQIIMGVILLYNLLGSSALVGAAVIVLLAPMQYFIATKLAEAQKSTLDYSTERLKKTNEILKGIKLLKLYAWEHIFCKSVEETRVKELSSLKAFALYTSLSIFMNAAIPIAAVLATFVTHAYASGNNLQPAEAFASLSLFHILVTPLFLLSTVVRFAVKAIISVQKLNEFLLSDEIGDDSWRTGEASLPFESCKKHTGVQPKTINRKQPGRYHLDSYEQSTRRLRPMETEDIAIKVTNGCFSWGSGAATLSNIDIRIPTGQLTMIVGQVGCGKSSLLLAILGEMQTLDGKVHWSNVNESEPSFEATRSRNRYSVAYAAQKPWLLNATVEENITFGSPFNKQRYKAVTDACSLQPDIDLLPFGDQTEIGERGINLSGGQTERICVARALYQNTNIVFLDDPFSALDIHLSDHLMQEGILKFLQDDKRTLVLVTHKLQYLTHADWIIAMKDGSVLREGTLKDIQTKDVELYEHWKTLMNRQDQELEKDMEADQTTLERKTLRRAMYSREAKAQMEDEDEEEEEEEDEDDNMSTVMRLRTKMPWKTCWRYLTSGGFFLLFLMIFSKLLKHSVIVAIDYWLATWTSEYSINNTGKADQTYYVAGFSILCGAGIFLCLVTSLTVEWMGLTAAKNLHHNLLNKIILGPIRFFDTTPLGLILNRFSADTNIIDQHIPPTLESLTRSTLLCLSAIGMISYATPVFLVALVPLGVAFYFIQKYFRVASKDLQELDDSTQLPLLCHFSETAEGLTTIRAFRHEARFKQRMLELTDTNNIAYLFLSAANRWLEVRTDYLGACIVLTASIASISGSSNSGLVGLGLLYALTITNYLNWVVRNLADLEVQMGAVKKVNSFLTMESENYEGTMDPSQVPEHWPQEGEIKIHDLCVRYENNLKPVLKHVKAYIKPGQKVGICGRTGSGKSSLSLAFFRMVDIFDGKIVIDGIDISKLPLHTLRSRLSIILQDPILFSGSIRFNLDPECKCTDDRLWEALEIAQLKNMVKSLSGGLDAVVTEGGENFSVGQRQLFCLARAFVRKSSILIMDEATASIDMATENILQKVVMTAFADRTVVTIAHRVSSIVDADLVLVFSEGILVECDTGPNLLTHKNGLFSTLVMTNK
T1 sequence (O02822 whole entry): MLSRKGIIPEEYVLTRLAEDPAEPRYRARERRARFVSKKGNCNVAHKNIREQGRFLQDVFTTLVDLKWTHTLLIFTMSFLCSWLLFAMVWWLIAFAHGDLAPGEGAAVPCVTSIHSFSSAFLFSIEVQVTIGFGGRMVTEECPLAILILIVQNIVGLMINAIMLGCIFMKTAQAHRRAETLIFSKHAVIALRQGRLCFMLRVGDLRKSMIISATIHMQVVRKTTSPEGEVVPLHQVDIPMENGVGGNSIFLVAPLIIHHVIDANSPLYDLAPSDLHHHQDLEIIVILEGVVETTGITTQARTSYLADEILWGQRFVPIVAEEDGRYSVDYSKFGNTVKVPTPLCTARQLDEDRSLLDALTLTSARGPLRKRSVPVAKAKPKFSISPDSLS

- activation of IKATP [3]: did not activate
Structure (SMILES): CCCCCC(O)CCCC(=O)O.[Na] (centres unmarked) [5-HD, 5-hydroxydecanoic acid sodium]
- block of the protection by diazoxide ([1]; 100 μM 5-HD): completely blocked
- attenuation of the oxidative effect of diazoxide ([2]; 100 μM 5-HD in the presence of diazoxide, FIG. 3): about half
- block of flavoprotein oxidation induced by diazoxide ([2]; FIG. 2a): reversibly blocks
- flavoprotein oxidation, % of the DNP value ([2]; diazoxide in the presence of 500 μM 5-HD, FIG. 3): 8±3%

Structure (SMILES): COc1ccc(Cl)cc1C(=O)NCCc1ccc(S(=O)(=O)NC(=O)NC2CCCCC2)cc1 [Glybenclamide]
- block of the protection from diazoxide ([1]; 1 μM glybenclamide, data not shown): blocked the protection

- EC50 ([2]; Oryctolagus cuniculus, Ventricular myocyte, FIG. 5, 5-6 cells per point, read-out: EC50 to induce mitochondrial oxidation): 27 µM
- activation of IKATP [3]: did not activate
Structure (SMILES): CC1=NS(=O)(=O)c2cc(Cl)ccc2N1 [diazoxide]
- cytotoxicity at 50 µM ([1]; 1 h, 60 min simulated ischemia): 18 ± 3%
- cytotoxicity at 50 µM ([1]; 2 h, 120 min simulated ischemia): 23 ± 4%
- protection of ventricular myocytes compared with preconditioning ([1]; cellular ischemia model): to the same extent as preconditioning
- flavoprotein fluorescence, confocal images [4]: increased fluorescence in strips parallel to the myofibril orientation
- mitochondrial oxidation, % of the DNP value ([2]; 100 μM, first exposure DIAZO(1), FIG. 3): 48±3%
- oxidation of the flavoproteins (flavoprotein fluorescence) ([2]; 100 μM, FIG. 1A): induced reversible oxidation
- mitochondrial oxidation ([2]; diazoxide exposure in the same cell as pinacidil): 41±5%
- flavoprotein oxidation, % of the DNP value ([2]; second exposure DIAZO(2) after washout, same cells, FIG. 3): 43±5%
- cardioprotective EC25 (intact hearts): 11 µM
- activation of IKATP / membrane currents ([3]; 100 μM, FIG. 1B): did not activate; also recorded: unchanged

- sarcolemmal IKATP ([3]; pinacidil 100 μM, measured at 0 mV, FIG. 6B): 0.74±0.54 nA
Structure (SMILES): CC(N/C(=N\C#N)Nc1ccncc1)C(C)(C)C (centres unmarked) [pinacidil]
- mitochondrial oxidation ([2]; pinacidil 100 μM, FIG. 6A): 35±8%

From US6586241B1, “Methods to identify compounds affecting mitochondria” (Johns Hopkins University, priority 1998, dated 2003)
